Laboratory results published in ChEMBL document CHEMBL3797164, “Transfer of SAR information from hypotensive indazole to indole derivatives acting at α-adrenergic receptors: In vitro and in vivo studies” (Eur J Med Chem, 2016).

How the values were obtained:
[1] = target: Nischarin (Rattus norvegicus, UniProt Q4G017); assay: Displacement of [3H]clonidine from Imidazoline receptor 1 in Sprague-Dawley rat kidney P2 membranes after […] by liquid scintillation counting
[2] = test system: Rattus norvegicus; assay: Antihypertensive activity in anesthetized Wistar rat assessed as change in heart rate at 0.1 mg/kg, iv administered as bolus dose after 2 mins (reference value: -0.6 […]); assay type: functional
[3] = target: T1, Adrenergic receptor alpha-2 (Homo sapiens, UniProt P08913+P18825+P18089); assay: Agonist activity at human recombinant Alpha-2 adrenergic receptor expressed in CHOK1 cells after 30 mins by [35S]GTPgammaS binding assay; assay type: functional, cell-based; conditions: cho-k1
T1 sequence (P08913 whole entry): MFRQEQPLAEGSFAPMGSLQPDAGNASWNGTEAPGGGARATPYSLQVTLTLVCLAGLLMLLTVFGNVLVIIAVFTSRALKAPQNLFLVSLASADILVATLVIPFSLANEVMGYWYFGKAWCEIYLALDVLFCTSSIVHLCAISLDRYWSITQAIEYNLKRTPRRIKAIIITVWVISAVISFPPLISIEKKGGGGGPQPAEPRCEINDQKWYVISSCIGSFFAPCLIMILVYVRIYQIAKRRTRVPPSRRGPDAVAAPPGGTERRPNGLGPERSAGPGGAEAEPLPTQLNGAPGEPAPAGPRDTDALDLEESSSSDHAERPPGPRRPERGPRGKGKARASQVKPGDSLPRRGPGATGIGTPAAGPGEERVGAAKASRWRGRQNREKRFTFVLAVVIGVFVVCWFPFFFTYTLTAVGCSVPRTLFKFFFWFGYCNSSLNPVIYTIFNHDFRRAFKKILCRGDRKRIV
T1 sequence (P18825 whole entry): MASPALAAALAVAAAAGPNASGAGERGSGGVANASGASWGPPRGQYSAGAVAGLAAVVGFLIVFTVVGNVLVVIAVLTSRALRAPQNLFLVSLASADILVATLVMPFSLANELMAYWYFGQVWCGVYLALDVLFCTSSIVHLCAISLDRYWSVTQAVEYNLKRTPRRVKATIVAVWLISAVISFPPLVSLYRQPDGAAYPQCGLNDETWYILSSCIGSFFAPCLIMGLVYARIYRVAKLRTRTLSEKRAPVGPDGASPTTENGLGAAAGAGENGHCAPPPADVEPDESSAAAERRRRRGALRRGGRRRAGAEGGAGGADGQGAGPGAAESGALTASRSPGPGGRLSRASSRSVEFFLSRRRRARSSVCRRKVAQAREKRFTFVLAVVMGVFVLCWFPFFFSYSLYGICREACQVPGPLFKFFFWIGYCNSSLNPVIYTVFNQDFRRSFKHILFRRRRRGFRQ
T1 sequence (P18089 whole entry): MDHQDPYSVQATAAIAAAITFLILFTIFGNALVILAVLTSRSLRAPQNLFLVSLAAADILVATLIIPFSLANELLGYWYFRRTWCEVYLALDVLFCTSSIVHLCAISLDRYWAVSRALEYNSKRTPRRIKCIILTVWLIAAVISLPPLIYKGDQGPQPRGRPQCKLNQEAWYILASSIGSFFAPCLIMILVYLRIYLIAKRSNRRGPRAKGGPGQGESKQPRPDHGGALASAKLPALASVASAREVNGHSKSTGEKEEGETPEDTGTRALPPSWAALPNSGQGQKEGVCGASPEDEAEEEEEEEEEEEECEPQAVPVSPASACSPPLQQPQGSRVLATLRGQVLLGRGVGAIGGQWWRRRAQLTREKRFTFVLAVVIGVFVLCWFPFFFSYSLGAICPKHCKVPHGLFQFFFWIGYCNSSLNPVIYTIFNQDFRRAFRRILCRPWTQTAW

[4] = target: T2, Adrenergic receptor alpha-2 (Rattus norvegicus, UniProt P22086+P19328+P22909); assay: Displacement of [3H]RX821002 from Alpha-2 adrenergic receptor in Sprague-Dawley rat brain P2 membranes after […] by liquid scintillation counting
T2 sequence (P22086 whole entry): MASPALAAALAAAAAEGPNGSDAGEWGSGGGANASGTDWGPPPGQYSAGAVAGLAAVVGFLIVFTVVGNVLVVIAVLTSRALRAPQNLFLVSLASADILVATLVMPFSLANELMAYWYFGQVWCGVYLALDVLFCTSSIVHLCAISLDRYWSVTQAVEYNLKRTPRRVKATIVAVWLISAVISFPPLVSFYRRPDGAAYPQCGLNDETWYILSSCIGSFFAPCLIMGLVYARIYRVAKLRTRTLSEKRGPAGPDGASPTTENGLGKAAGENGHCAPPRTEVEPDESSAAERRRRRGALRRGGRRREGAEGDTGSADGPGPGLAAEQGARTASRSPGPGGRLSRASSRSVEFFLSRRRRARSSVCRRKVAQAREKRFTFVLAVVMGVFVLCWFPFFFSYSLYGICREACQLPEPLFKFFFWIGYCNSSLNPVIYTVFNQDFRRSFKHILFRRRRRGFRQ
T2 sequence (P19328 whole entry): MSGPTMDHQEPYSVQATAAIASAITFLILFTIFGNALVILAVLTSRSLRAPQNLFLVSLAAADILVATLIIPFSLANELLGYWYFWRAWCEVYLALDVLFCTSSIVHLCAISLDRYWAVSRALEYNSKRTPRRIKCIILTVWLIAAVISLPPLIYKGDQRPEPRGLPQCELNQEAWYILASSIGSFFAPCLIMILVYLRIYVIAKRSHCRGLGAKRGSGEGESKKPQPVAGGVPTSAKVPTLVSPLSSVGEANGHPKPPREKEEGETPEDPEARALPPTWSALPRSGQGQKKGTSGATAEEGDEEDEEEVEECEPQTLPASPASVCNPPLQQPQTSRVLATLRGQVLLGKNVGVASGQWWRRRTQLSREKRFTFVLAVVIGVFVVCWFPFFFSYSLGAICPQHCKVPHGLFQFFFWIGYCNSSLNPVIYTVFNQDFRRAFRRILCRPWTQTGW
T2 sequence (P22909 whole entry): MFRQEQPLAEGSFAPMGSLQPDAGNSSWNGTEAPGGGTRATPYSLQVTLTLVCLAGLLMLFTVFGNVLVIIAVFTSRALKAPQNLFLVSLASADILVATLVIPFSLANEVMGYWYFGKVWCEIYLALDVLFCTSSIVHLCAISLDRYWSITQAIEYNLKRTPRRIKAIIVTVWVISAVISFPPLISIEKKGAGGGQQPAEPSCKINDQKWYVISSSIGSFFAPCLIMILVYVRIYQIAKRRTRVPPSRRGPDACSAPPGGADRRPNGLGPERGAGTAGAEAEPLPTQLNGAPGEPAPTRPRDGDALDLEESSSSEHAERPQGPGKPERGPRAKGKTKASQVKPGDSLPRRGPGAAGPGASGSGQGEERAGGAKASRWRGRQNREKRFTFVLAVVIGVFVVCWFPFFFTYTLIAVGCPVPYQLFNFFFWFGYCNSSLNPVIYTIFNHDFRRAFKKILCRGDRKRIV

[5] = test system: Rattus norvegicus; assay: Antihypertensive activity in anesthetized Wistar rat assessed as change in heart rate at 0.1 mg/kg, iv administered as bolus dose after 5 mins (reference value: -2.9 […]); assay type: functional
[6] = test system: Rattus norvegicus; assay: Neurotoxicity in Sprague-Dawley rat assessed as induction of sedative-hypnotic state at 10 to 500 ug/kg, ip after 30 mins by LORR test; assay type: toxicity, organism-based; conditions: in vivo, 0.5 h

Nischarin, sequence (Q4G017 whole entry): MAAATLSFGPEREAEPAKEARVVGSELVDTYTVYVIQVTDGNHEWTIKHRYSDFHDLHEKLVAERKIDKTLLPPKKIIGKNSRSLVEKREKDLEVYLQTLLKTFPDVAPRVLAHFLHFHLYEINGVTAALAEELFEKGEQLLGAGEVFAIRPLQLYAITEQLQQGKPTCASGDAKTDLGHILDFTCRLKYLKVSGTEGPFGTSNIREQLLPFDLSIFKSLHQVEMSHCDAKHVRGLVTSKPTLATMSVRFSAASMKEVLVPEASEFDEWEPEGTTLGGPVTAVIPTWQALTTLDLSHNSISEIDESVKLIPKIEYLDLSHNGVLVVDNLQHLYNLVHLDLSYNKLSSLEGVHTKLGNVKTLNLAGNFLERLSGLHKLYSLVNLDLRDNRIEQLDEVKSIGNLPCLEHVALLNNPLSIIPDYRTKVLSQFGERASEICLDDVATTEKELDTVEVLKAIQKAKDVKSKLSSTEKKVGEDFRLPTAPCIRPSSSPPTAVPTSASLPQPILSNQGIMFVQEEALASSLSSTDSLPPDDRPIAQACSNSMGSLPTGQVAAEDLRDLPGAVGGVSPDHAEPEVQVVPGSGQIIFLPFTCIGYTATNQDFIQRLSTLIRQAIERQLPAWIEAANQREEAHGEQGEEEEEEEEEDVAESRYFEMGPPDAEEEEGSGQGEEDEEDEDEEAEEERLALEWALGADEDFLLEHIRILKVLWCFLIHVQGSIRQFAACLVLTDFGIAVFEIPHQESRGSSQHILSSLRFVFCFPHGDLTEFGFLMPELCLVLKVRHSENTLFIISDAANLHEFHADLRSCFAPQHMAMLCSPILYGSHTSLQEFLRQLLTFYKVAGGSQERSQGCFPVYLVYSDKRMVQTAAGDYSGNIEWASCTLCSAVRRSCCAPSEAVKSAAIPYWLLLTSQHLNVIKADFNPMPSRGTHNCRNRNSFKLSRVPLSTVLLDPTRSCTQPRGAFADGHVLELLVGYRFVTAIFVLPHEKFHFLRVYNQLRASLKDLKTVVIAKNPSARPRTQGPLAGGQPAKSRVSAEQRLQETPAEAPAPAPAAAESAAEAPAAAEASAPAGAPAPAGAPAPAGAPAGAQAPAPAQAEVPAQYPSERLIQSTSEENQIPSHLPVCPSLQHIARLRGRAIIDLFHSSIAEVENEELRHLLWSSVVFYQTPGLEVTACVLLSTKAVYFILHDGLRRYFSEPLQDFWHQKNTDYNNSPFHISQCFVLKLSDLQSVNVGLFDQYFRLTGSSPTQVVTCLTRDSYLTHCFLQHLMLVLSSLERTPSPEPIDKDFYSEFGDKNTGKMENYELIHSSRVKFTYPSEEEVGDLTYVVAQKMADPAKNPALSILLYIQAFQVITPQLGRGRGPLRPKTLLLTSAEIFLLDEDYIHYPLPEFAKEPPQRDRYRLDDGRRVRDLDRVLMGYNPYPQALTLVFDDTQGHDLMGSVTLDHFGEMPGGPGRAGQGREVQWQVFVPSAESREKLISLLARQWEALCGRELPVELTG

Row | SMILES | Ki [1] [nM] | Activity [2] [bpm] | EC50 [3] [nM] | Ki [4] [nM] | Activity [5] [bpm] | Activity [6]
1 | Br.Cc1cccc2ccn(CC3=NCCN3)c12 | 1000 | -61.3 | 7.9 | 16.63 | -83.3 | –
2 | Cl.c1ccc2c(c1)ccn2CC1=NCCN1 | 81400 | -138.4 | – | 33.5 | -100.1 | –
3 | Cl.Clc1cccc2ccn(CC3=NCCN3)c12 | 10300 | -89.6 | 3600 | 6.34 | -132 | Non-toxic
